Results taken from publication PMC5840332, “Disease-associated missense mutations in GluN2B subunit alter NMDA receptor ligand binding and ion channel properties” (Nature Communications, 2018).

Tests used:
[1] = tested on: hippocampal neurons expressing GluN2B^V618G; assay: Evoked NMDAR-mediated EPSCs in transfected hippocampal neurons; format: cell-based, rat; conditions: 300 μM memantine, 0 Mg^2+
Excerpt: (§1) Dissected hippocampi were dissociated from E18 Sprague Dawley rat embryos using procedures and protocols that have been approved by the UK Home Office. They were dissociated into single cells using 0.1% w/v trypsin and serially triturated with flame-polished Pasteur pipettes. […] Neurons were transfected after 10 days in vitro (DIV) with either cDNAs for the GluN2B WT or mutants together with DsRed using Effectene (Qiagen) and recorded at 13–15 DIV.
(§2) Cells were voltage clamped at −60 mV.
(§3) NMDAR-mediated EPSCs were evoked by direct stimulation of single neighbouring neurons using a loose cell-attached patch electrode filled with Krebs and containing a bipolar stimulating electrode. […] For the pharmacological characterisation of NMDAR-mediated EPSCs, the selective antagonists ifenprodil (+)-hemitartrate (Santacruz biotechnology) and TCN213 (Tocris) were used.
(§4) EPSCs were analysed offline using WinWCP (Strathclyde Electrophysiology Software, UK). Peak EPSC amplitude, the area of the EPSC (charge transfer) and EPSC decays were measured. The decay time constants (τ) were determined by fitting the EPSC decays with a double exponential function. The weighted time constant (τw) was calculated using the following equation, where A indicates the relative area of each time constant.3 τw=((A1.τ1)+(A2.τ2))∕A1+A2.

[2] = tested on: hippocampal neurons expressing GluN2B^WT; assay: as above; format: cell-based, rat; conditions: 30 μM memantine, 0 Mg^2+
Excerpt: as §1, §2, §3, §4

[3] = tested on: hippocampal neurons expressing GluN2B^N615I; assay: as above; format: cell-based, rat; conditions: 30 μM memantine, 0 Mg^2+
Excerpt: as §1, §2, §3, §4

[4] = Memantine pKa and ionisation; format: physicochemical
GluN1–GluN2B^N615I = GluN1–GluN2B^N615I (Homo sapiens, UniProt Q05586+Q13224, N615I); assay: Memantine block of glutamate currents in HEK293 cells (concentration–inhibition, I–V, trapping model); format: cell-based; design: expressed in transfected cells; host or cells: HEK293
Chain of GluN1–GluN2B^N615I (Q13224 27-1484 N615I, other chains not shown): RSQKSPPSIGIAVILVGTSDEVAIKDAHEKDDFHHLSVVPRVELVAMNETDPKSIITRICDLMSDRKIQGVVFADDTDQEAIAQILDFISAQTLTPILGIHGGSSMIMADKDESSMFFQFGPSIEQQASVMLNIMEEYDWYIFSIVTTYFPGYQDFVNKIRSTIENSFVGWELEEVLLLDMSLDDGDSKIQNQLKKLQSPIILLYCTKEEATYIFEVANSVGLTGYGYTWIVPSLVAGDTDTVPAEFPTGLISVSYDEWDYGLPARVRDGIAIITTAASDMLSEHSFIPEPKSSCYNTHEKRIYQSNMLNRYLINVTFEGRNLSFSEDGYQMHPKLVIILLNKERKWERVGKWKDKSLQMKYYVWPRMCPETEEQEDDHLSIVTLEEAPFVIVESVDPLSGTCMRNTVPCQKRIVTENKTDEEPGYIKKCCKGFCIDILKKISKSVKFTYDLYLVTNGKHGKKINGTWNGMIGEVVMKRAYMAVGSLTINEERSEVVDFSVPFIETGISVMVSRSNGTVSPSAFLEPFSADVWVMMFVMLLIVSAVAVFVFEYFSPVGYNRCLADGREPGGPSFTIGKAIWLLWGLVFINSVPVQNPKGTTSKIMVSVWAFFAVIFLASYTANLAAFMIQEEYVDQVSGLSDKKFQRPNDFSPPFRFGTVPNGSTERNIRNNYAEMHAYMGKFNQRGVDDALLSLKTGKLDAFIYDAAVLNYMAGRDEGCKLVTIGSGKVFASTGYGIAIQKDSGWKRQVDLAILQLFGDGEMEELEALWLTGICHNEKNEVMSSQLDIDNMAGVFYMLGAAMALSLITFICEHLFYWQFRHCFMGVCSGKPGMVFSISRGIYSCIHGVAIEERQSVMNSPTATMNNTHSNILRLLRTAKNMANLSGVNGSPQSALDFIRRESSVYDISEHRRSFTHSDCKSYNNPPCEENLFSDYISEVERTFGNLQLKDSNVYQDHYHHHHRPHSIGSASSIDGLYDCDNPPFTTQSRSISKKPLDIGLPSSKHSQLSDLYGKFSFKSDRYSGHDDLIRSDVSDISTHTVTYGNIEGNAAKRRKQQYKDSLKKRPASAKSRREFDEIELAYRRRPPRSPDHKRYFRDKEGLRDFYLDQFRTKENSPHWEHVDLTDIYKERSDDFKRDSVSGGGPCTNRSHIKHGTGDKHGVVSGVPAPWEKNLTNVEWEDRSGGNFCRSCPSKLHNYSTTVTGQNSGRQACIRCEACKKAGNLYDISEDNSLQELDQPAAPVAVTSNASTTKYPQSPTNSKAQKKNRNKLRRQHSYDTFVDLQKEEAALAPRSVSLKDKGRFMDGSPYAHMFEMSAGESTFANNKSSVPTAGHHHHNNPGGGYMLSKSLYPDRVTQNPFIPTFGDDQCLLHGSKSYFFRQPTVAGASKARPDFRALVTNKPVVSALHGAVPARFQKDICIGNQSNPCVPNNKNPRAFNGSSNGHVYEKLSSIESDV
Protocol: (§5) To examine voltage-dependent block of NMDARs, HEK293 cells were voltage clamped at −30 mV, and currents recorded following a voltage (10 mV) step protocol from −90 to +90 mV. […] The current induced by the agonists was determined by subtracting the leak current before plotting the I–V relationship.
(§6) To explain the block of the NMDAR we adopted a trapping based model (Table 2) whereby the antagonist can remain bound to its site (e.g. in the channel) after agonist dissociation.
(§7) The values of k+bo(0 mV) and k+bi(0 mV) were fixed at 5 × 10^7 M^-1 s^-1. […] This allowed k−bo and δMg to be estimated independently. For the permeation model (see below), the same principle was used to define the ion binding rate (k+bi) from the inside of the channel.

GluN1–GluN2B^V618G = GluN1–GluN2B^V618G (Homo sapiens, UniProt Q05586+Q13224, V618G); assay: as above; format: cell-based; design: expressed in transfected cells; host or cells: HEK293
Chain of GluN1–GluN2B^V618G (Q13224 27-1484 V618G, other chains not shown): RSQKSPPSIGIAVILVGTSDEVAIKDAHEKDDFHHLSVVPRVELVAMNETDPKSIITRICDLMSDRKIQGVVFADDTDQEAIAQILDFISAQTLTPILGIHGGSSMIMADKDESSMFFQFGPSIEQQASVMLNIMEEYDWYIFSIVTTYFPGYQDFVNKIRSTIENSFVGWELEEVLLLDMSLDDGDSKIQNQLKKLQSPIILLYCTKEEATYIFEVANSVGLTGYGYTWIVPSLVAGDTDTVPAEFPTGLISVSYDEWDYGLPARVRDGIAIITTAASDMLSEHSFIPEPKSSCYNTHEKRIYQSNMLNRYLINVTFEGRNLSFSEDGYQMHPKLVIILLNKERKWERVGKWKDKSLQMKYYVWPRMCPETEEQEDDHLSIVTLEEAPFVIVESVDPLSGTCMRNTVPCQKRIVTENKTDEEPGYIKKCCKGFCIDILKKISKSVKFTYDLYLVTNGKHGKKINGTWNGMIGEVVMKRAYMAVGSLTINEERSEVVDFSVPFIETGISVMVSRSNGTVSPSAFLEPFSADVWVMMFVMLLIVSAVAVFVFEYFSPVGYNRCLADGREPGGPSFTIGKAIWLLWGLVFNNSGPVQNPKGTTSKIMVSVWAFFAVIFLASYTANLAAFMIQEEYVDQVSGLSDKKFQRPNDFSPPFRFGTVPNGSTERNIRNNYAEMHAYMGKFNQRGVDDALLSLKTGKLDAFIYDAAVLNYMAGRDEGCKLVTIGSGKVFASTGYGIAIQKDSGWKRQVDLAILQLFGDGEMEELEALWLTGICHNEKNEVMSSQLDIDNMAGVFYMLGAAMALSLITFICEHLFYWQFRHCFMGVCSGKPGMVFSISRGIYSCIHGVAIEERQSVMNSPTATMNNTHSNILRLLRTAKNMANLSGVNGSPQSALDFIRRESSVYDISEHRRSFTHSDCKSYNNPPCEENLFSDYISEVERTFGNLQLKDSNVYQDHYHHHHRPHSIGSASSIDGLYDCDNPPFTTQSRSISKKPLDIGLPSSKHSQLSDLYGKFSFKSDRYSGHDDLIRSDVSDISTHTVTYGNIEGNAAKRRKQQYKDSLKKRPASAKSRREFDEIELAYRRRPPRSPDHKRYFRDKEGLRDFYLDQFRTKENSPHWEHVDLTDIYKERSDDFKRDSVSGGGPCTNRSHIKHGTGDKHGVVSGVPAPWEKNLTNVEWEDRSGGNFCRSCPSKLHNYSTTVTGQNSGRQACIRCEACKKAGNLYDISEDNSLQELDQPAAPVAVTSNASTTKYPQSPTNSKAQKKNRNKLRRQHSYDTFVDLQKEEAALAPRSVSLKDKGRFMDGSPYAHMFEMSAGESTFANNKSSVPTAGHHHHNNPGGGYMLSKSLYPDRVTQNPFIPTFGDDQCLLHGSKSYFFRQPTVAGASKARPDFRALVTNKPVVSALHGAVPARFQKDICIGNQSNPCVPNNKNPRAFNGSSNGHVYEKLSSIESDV
Protocol: as §5, §6, §7

GluN1–GluN2B^WT = GluN1–GluN2B^WT (Homo sapiens, UniProt Q05586+Q13224); assay: as above; format: cell-based; design: expressed in transfected cells; host or cells: HEK293; conditions: for δMem, fraction of membrane potential sensed by memantine: trapping block model fit
Chain of GluN1–GluN2B^WT (Q13224 27-1484, other chains not shown): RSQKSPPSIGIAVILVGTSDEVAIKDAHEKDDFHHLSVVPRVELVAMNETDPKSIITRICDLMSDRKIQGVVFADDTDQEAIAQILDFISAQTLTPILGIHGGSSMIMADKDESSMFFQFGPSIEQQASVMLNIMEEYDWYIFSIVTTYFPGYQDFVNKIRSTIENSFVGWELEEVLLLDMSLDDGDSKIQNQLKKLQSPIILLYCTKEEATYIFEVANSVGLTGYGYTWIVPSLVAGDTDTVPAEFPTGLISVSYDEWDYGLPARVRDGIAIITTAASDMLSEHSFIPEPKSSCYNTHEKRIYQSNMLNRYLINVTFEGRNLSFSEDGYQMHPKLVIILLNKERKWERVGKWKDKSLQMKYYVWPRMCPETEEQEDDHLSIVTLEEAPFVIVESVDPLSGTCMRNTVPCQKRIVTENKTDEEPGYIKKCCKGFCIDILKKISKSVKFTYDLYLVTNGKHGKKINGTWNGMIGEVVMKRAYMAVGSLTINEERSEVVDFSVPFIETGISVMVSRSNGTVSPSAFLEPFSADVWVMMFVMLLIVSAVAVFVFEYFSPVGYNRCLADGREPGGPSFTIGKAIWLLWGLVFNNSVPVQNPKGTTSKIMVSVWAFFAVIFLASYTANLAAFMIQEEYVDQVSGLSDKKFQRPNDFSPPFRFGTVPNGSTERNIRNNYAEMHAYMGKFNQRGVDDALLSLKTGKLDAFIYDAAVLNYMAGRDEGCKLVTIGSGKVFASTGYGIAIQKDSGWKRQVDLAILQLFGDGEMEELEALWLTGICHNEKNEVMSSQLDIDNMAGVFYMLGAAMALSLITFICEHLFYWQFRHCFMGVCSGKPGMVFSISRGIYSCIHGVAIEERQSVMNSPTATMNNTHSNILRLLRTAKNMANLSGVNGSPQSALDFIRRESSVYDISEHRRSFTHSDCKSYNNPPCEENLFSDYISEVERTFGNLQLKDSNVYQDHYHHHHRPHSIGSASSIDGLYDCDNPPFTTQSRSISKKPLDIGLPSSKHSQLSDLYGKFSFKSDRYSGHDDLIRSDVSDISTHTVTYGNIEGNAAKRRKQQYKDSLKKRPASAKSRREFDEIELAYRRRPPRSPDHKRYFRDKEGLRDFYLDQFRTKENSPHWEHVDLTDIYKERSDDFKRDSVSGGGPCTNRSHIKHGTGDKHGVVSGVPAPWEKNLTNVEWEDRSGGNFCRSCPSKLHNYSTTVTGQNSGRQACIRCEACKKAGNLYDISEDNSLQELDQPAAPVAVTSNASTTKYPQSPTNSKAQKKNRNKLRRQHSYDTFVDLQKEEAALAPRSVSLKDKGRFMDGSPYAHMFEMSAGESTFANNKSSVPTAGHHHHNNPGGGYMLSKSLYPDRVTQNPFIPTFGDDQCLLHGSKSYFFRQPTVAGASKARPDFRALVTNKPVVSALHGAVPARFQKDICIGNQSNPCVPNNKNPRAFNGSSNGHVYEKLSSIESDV
Protocol: as §5, §6, §7

[5] = after removal of 10 μM glutamate + 10 μM glycine, range of memantine concentrations

CC12CC3CC(C)(C1)CC(N)(C3)C2 [Memantine, memantine]
Inhibition of peak EPSC amplitude and charge transfer by memantine [1]: inhibited to a comparable extent | Inhibition of peak EPSC amplitude and charge transfer by memantine [2]: inhibited to a comparable extent | Inhibition of peak EPSC amplitude and charge transfer by memantine [3]: inhibited to a comparable extent | Fraction charged at physiological pH [4]: 99.95% | Effect of memantine on deactivation time constant (τ) (GluN1–GluN2B^N615I; [5]): did not affect | δMem, fraction of membrane potential sensed by memantine (GluN1–GluN2B^N615I; trapping block model fit): 0.42 ± 0.11 | Effect of memantine on deactivation time constant (τ) (GluN1–GluN2B^V618G; [5]): did not affect | δMem, fraction of membrane potential sensed by memantine (GluN1–GluN2B^V618G; trapping block model fit): 0.42 ± 0.03 | Effect of memantine on deactivation time constant (τ) (GluN1–GluN2B^WT; [5]): did not affect | δMem, fraction of membrane potential sensed by memantine (GluN1–GluN2B^WT): 0.65 ± 0.026 | δMem, fraction of membrane potential sensed by memantine (GluN1–GluN2B^WT; listed as memantine): 0.65 ± 0.03
